Measurements as given in patent US20240279278A1, “NMU RECEPTOR 2 AGONISTS” (Boehringer Ingelheim International GmbH, priority 2023, published 2024).
Values after ≈ are worked out from the molar mass of the structure shown. Residues, ends and D or L forms follow the SMILES beside them.

Key:
human NMUR1 receptor = target: T1, human NMUR1 receptor (Homo sapiens, UniProt Q9HB89); assay: Radioligand binding competition assay (RLB), human NMUR1 receptor binding (SPA, [125I]-Neuromedin U-25); details: CHO-K1 hNMUR1 cell membranes, 4 hours at RT
T1 construct: host or cells: CHO-K1
T1 sequence (Q9HB89 24-426 limits assumed): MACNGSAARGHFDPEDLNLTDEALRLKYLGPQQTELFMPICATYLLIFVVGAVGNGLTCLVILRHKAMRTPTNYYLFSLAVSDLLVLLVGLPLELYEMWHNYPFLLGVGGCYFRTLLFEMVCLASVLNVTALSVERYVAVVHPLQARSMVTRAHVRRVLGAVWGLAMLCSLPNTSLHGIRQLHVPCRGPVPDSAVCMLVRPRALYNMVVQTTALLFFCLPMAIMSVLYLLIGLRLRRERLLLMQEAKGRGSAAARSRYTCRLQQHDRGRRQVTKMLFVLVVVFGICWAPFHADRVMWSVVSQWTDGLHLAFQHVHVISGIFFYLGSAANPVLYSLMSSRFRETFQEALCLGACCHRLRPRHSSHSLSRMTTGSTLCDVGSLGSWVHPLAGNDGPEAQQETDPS
Description: Example 2: Radioligand Binding Competition Assay (RLB) Human NMUR1 Receptor Binding 1) Membranes The test is based on membranes prepared from a human NMUR1/Apoaequorin Stable Cell Line (Creative Biogene, Cat. No. CSC-RG1308). Cell Line Description: CHO-NMUR1 cell line is clonally-derived from a CHO-K1 cell line, which has been transfected with a bicistronic expression plasmid containing the sequence coding for the human neuromedin U receptor 1 (NM_006056.4, 180 to 1391). Mosaic-ID: CL16550614 Membrane preparation: Cells were broken by nitrogen cavitation (900 psi, 1 hour). Intact cells were removed by centrifugation (400 rcf, 10 minutes, 4° C.) before the crude membrane fraction was collected by ultracentrifugation (20.000 rcf, 1 hour, 4° C.). 2) Human NMUR1 Receptor Binding Assay (Radioligand: [125l]-Neuromedin U-25) In this Scintillation Proximity Assay (SPA) design, the membranes immobilize directly to the PVT-WGA-PEI type A beads (polyethyleneimine treated polyvinyltoluene beads coupled to wheatgerm agglutinin, Perkin Elmer) via interactions of wheat germ agglutinate and glycosylated membrane structures. Thereby the radioactively la-belled ligand, bound to NMUR1 receptors on the membrane, comes in close proximity to the solid scintillator of the PVT bead. Radioactive human neuromedin U-25 then stimulates the scintillant to emit light. In contrast, radioligand not bound to the receptor is too distant from the bead to elicit a signal. For the Scintillation Proximity Assay the CHO-K1 hNMUR1 cell membranes and SPA-beads are diluted to concentrations, which assure a robust signal to background ratio. The SPA incubation buffer consists of 25 mM Hepes (pH=7.0), 5 mM MgCl2, 1 mM CaCl2, 10 ug/mL Saponine and 0.1% bovine serum albumin and is used for all dilutions. Final assay setup in 96-well plate: 20 μL of 10× test compound dilutions+40 μL of 5× [125l]-Neuromedin U-25 (1× approx. 30 pM; 2000 μCi/mmol (μCi=microcurie))+60 μL membrane dilution (approx. 1.0 μg membrane protein)+80 μL SPA bead dilution (250 μg). The assay is incubated for 4 hours at RT, including controls for specific binding where no displacer is added and non-specific binding by adding unlabeled hNMU-25 at 100 nM. Bound radioactivity is determined by scintillation counting (MicroBeta Trilux 1450, Perkin Elmer, detection of 125I decay). […] The system assumes one binding site with no relevant radioligand depletion (<10%) and that the binding is reversible and at equilibrium. [formula] [formula]

human NMUR2 receptor = human NMUR2 receptor (Homo sapiens, UniProt Q9GZQ4); assay: Radioligand binding competition assay (RLB), human NMUR2 receptor binding (SPA, [125I]-Neuromedin U-25); set-up: host or cells: CHO-K1; details: CHO-K1 hNMUR2 cell membranes, 4 hours at RT
Sequence of human NMUR2 receptor (Q9GZQ4 whole entry): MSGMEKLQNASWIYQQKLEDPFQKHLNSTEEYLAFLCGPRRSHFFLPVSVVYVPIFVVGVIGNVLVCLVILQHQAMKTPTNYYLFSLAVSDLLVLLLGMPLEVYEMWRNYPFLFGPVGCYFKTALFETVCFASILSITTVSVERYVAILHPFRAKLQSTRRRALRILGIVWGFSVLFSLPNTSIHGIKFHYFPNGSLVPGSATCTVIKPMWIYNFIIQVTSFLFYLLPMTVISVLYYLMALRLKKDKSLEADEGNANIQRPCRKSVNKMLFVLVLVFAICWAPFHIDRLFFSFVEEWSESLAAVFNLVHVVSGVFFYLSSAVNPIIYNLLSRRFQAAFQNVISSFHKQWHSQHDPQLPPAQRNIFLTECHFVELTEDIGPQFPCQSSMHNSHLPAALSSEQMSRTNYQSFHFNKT
Description: Example 1: Radioligand Binding Competition Assay (RLB) Human NMUR2 Receptor Binding
The test is based on membranes prepared from a Human NMUR2/Apoaequorin Stable Cell Line (Creative Biogene, Cat. No. CSC-RG1309).
Cell Line Description: CHO-NMUR2 cell line is clonally derived from a CHO-K1 cell line, which has been transfected with a bicistronic expression plasmid containing the sequence coding for the human neuromedin U receptor 2 (AF242874.1). MOSAIC-ID: CL16550616.
Membrane preparation: Cells were broken by nitrogen cavitation (900 psi, 1 hour). Intact cells were removed by centrifugation (400 rcf (relative centrifugal force), 10 minutes, 4° C.) before the crude membrane fraction was collected by ultracentrifugation (20.000 rcf, 1 hour, 4° C.).
2) Human NMUR2 Receptor Binding Assay (Radioligand: [125I]-Neuromedin U-25 (Human))
In this Scintillation Proximity Assay (SPA) design, the membranes immobilize directly to the PVT-WGA-PEI type A beads (polyethyleneimine treated polyvinyltoluene beads coupled to wheatgerm agglutinin, Perkin Elmer) via interactions of wheat germ agglutinate and glycosylated membrane structures. Thereby the radioactively la-belled ligand, bound to NMUR2 receptors on the membrane, comes in close proximity to the solid scintillator of the PVT bead. Radioactive human neuromedin U-25 then stimulates the scintillant to emit light. In contrast, radioligand not bound to the receptor is too distant from the bead to elicit a signal.
For the Scintillation Proximity Assay the CHO-K1 hNMUR2 cell membranes and SPA-beads are diluted to concentrations, which assure a robust signal to background ratio. The SPA incubation buffer consists of 25 mM Hepes (pH=7.0), 5 mM MgCl2, 1 mM CaCl2, 10 ug/mL Saponine and 0.1% bovine serum albumin and is used for all dilutions.
Final assay setup in 96-well plate: 20 μL of 10× test compound dilutions+40 μL of 5× [125l]-Neuromedin U-25 (1× approx. 30 pM; 2000 μCi/mmol)+60 μL membrane dilution (approx. 2.5 μg membrane protein)+80 μL SPA bead dilution (0.75 mg).
The assay is incubated for 4 hours at RT, including controls for specific binding where no displacer is added and non-specific binding by adding unlabeled hNMU-25 at 100 nM. Bound radioactivity is determined by scintillation counting (MicroBeta Trilux 1450, Perkin Elmer, detection of 125I decay). […] The system assumes one binding site with no relevant radioligand depletion (<10%) and that the binding is reversible and at equilibrium.

physchem = assay type: physicochemical
Procedure: Example 6: Solubility Determination
Peptides (as TFA-salts) were weighed out in a filter unit (Mini-UniPrep Syringeless Filter 0.45 μm, Whatman PVDF), and 0.1 M phosphate buffer at pH 6 to 8 was added to achieve 10 mg/mL final peptide concentration. The peptides were dissolved by shaking the filter units horizontally at 350 rpm for 2 hours at room temperature. Samples were then filtered to remove any insoluble particles. Controls were prepared by weighing out the corresponding peptide solid material and dissolving it in an appropriate vehicle (e.g. buffer or DMSO) to a final concentration of 1 mg/mL. Both, the control and sample were analyzed by reversed phase chromatography. The area under the peak of the sample was compared to the control and the solubility was calculated based on that ratio. The pH was measured and recorded for each sample.

Ki (human NMUR1 receptor)	Ki (human NMUR2 receptor)	solubility at 2 h (physchem; pH 7.2)	solubility at 2 h (physchem; pH 7.3)	SMILES	solubility at 2 h (physchem; pH 7.5)	solubility at 2 h (physchem; pH 7)
> 10000 nM	10.1 nM	4600 µg/mL (≈ 1660 µM)	–	CCCC[C@H](NC(=O)[C@H](CC(C)C)N(C)C(=O)[C@H](Cc1ccccc1)NC(=O)[C@H](Cc1ccc(O)cc1)NC(=O)CN1CCN(CCNC(=O)CN(C)C(=O)CN(C)C(=O)CN(C)C(=O)CN(C)C(=O)CN(C)C(=O)CN(C)C(=O)CN(C)C(=O)CN(C)C(=O)CN(C)C(=O)CN(C)C(=O)CN(C)C(=O)CN(C)C(=O)CC[C@H](NC(=O)CC[C@H](NC(=O)CC[C@H](NC(=O)CCCCCCCCCCCCCCCCCCC(=O)O)C(=O)O)C(=O)O)C(=O)O)CC1)C(=O)N[C@@H](CCCNC(=N)N)C(=O)N1CCC[C@H]1C(=O)N[C@@H](CCCNC(=N)N)C(=O)NCC(N)=O [Compound 6, C20DA-gGlu3-Sar12-AEPipAc-Tyr-Phe-NMeLeu-Nle-Arg-Pro-Arg-Gly-NH2]	–	–
> 10000 nM	89.1 nM	–	1900 µg/mL (≈ 701 µM)	CCCC[C@H](NC(=O)[C@H](CC(C)C)N(C)C(=O)[C@H](Cc1ccccc1)NC(=O)[C@H](Cc1ccc(O)cc1)NC(=O)CN1CCN(CCNC(=O)CN(C)C(=O)CN(C)C(=O)CN(C)C(=O)CN(C)C(=O)CN(C)C(=O)CN(C)C(=O)CN(C)C(=O)CN(C)C(=O)CN(C)C(=O)CN(C)C(=O)CN(C)C(=O)CN(C)C(=O)CC[C@H](NC(=O)CC[C@H](NC(=O)CC[C@H](NC(=O)CCCCCCCCCCCCCCCCCCC(=O)O)C(=O)O)C(=O)O)C(=O)O)CC1)C(=O)N[C@@H](CCN)C(=O)N1CCC[C@H]1C(=O)N[C@@H](CCCNC(=N)N)C(=O)NCC(N)=O [Compound 8, C20DA-gGlu3-Sar12-AEPipAc-Tyr-Phe-NMeLeu-Nle-Dbu-Pro-Arg-Gly-NH2]	–	–
> 10000 nM	23.7 nM	8400 µg/mL (≈ 3130 µM)	–	CCCC[C@H](NC(=O)[C@H](CC(C)C)N(C)C(=O)[C@H](Cc1ccccc1)NC(=O)[C@H](Cc1ccc(O)cc1)NC(=O)CN1CCN(CCNC(=O)CN(C)C(=O)CN(C)C(=O)CN(C)C(=O)CN(C)C(=O)CN(C)C(=O)CN(C)C(=O)CN(C)C(=O)CN(C)C(=O)CN(C)C(=O)CN(C)C(=O)CN(C)C(=O)CN(C)C(=O)CC[C@H](NC(=O)CC[C@H](NC(=O)CC[C@H](NC(=O)CCCCCCCCCCCCCCCCC(=O)O)C(=O)O)C(=O)O)C(=O)O)CC1)C(=O)N[C@@H](CCCN)C(=O)N(C)[C@@H](C)C(=O)N[C@@H](CCCNC(=N)N)C(=O)NCC(N)=O [Compound 20, C18DA-gGlu3-Sar12-AEPipAc-Tyr-Phe-NMeLeu-Nle-Orn-NMeAla-Arg-Gly-NH2]	–	–

The remaining lines, values behind:

SMILES	Ki (human NMUR1 receptor)	Ki (human NMUR2 receptor)	solubility at 2 h (physchem; pH 7.2)	solubility at 2 h (physchem; pH 7.3)	solubility at 2 h (physchem; pH 7.5)	solubility at 2 h (physchem; pH 7)
CCCC[C@H](NC(=O)[C@H](CC(C)C)N(C)C(=O)[C@H](Cc1ccccc1)NC(=O)[C@H](Cc1ccc(O)cc1)NC(=O)CN1CCN(CCNC(=O)CN(C)C(=O)CN(C)C(=O)CN(C)C(=O)CN(C)C(=O)CN(C)C(=O)CN(C)C(=O)CN(C)C(=O)CN(C)C(=O)CN(C)C(=O)CN(C)C(=O)CN(C)C(=O)CN(C)C(=O)CN(C)C(=O)CN(C)C(=O)CN(C)C(=O)CC[C@H](NC(=O)CC[C@H](NC(=O)CC[C@H](NC(=O)CCCCCCCCCCCCCCCCCCC(=O)O)C(=O)O)C(=O)O)C(=O)O)CC1)C(=O)N[C@@H](CCCN)C(=O)N1CCC[C@H]1C(=O)N[C@@H](CCCNC(=N)N)C(=O)NCC(N)=O [Compound 1, C20DA-gGlu3-Sar15-AEPipAc-Tyr-Phe-NMeLeu-Nle-Orn-Pro-Arg-Gly-NH2] (HELM PEPTIDE1{[O=C(O)CCCCCCCCCCCCCCCCCCC(=O)[*:2]].[gGlu].[gGlu].[gGlu].[Sar].[Sar].[Sar].[Sar].[Sar].[Sar].[Sar].[Sar].[Sar].[Sar].[Sar].[Sar].[Sar].[Sar].[Sar].[O=C(CN1CCN(CCN[*:1])CC1)[*:2]].Y.F.[meL].[Nle].[Orn].P.R.G.[am]}$$$$V2.0)	> 10000 nM	8.6 nM	–	–	8200 µg/mL (≈ 2790 µM)	–
CCCC[C@H](NC(=O)[C@H](CC(C)C)N(C)C(=O)[C@H](Cc1ccccc1)NC(=O)[C@H](Cc1ccc(O)cc1)NC(=O)CN1CCN(CCNC(=O)CN(C)C(=O)CN(C)C(=O)CN(C)C(=O)CN(C)C(=O)CN(C)C(=O)CN(C)C(=O)CN(C)C(=O)CN(C)C(=O)CN(C)C(=O)CN(C)C(=O)CN(C)C(=O)CN(C)C(=O)CN(C)C(=O)CN(C)C(=O)CN(C)C(=O)CC[C@H](NC(=O)CC[C@H](NC(=O)CC[C@H](NC(=O)CCCCCCCCCCCCCCCCC(=O)O)C(=O)O)C(=O)O)C(=O)O)CC1)C(=O)N[C@@H](CCCNC(=N)N)C(=O)N1CCC[C@H]1C(=O)N[C@@H](CCCNC(=N)N)C(=O)NCC(N)=O [Compound 7, C18DA-gGlu3-Sar15-AEPipAc-Tyr-Phe-NMeLeu-Nle-Arg-Pro-Arg-Gly-NH2] (HELM PEPTIDE1{[O=C(O)CCCCCCCCCCCCCCCCC(=O)[*:2]].[gGlu].[gGlu].[gGlu].[Sar].[Sar].[Sar].[Sar].[Sar].[Sar].[Sar].[Sar].[Sar].[Sar].[Sar].[Sar].[Sar].[Sar].[Sar].[O=C(CN1CCN(CCN[*:1])CC1)[*:2]].Y.F.[meL].[Nle].R.P.R.G.[am]}$$$$V2.0)	3740 nM	22.8 nM	–	–	–	7000 µg/mL (≈ 2370 µM)
